Experimental data published in patent publication US9550796B2, “Pyrrolopyrrolone derivatives and their use as BET inhibitors” (NOVARTIS AG, priority 2013, dated 2017).

Tests used:
K-562 = assay: Cell growth inhibition assay (CellTiter-Glo), K-562; assay type: cell-based, human; details: K-562 cells, 4 days; for GI50: Homo sapiens, K562, 96 h, half-maximal growth inhibition; for K-562 TGI: total growth inhibition
Method: (§1) Cell Growth Inhibition Assay
(§2) The human leukemia cell lines MV-4-11, THP-1 and K-562 were employed to characterize the effect of BET inhibitors on cellular proliferation and viability. Cells were obtained from the American Type Culture Collection (ATCC) and cultured at 37° C. in a humidified 5% CO2 incubator in the following media: MV-4-11: DMEM high glucose (Animed #1-26F01-I), 10% FCS (Animed #2-01F26-I), 4 mM L-Glutamine (Animed #5-10K50), 1 mM Sodium Pyruvate (Animed # G03625P), 1× Penicillin-Streptomycin (Animed # F12478P); K-562: Iscove's MEM (Animed #1-28F16-I), 10% FCS (Animed #2-01F26-I), 4 mM L-Glutamine (Animed #5-10K50), 1× Penicillin-Streptomycin (Animed # F12478P); THP-1: RPMI-1640 (Animed #1-41F01-I), 10% FCS (Animed #2-01F26-I), 2 mM L-Glutamine (Animed #5-10K50), 10 mM HEPES (Animed #5-31F100), 1 mM Sodium Pyruvate (Animed # G03625P), 1× Penicillin-Streptomycin (Animed # F12478P). The AML lines MV-4-11 and THP-1 are very sensitive to BET inhibitors and show massive cell death upon BET inhibition (Zuber et al., Nature, 478 (2011), 524-8). Compound-mediated suppression of cell proliferation/viability was assessed by quantification of cellular ATP levels using the CellTiter-Glo (CTG) reagent (Promega). Briefly, cells were seeded in 20 μl fresh medium into 384-well plates, followed by addition of 5 μL medium containing compound dilutions at 5-fold their final intended concentration. Dose-response effects were assessed by 3-fold serial dilutions of the test compound, starting at 10 μM. Following incubation of the cells for 4 days at 37° C. and 5% CO2, the effect of inhibitors on cell viability was quantified following addition of 20 μl CTG and luminescence quantification (integration time: 100 ms) as per vendor manual, using a correspondingly equipped Tecan M200 multi-mode platereader (TECAN, Switzerland). For data analysis, the assay background value determined in wells containing medium, but no cells, was subtracted from all data points. To enable differentiation of cytotoxic from cytostatic compounds, the number of viable cells is assessed relative to that observed at the time of compound addition using a separate cell plate (day 0). The effect of a particular test compound concentration on cell proliferation/viability is expressed as percentage of the background- and day 0-corrected luminescence reading obtained for cells treated with vehicle only (DMSO, 0.1% final concentration), which is set as 100%, whereas that luminescence reading for wells containing medium is set as −100%. Compound concentrations leading to half-maximal (IC50) and total growth inhibition (TGI) were determined using standard four parameter curve fitting.

THP-1 = assay: Cell growth inhibition assay (CellTiter-Glo), THP-1; assay type: cell-based, human; details: THP-1 cells, 4 days; for GI50: Homo sapiens, 96 h, half-maximal growth inhibition; for THP-1 TGI: total growth inhibition
Method: as §1, §2

BRD3 = BRD3 (Homo sapiens (Human), UniProt Q15059); assay: TR-FRET in-vitro binding assay for BRD3; details: 45 nM His-Brd3(20-477), acetyl-histone H4 (AcK 5, 8, 12, 16) peptide
BRD3, sequence (Q15059 20-477): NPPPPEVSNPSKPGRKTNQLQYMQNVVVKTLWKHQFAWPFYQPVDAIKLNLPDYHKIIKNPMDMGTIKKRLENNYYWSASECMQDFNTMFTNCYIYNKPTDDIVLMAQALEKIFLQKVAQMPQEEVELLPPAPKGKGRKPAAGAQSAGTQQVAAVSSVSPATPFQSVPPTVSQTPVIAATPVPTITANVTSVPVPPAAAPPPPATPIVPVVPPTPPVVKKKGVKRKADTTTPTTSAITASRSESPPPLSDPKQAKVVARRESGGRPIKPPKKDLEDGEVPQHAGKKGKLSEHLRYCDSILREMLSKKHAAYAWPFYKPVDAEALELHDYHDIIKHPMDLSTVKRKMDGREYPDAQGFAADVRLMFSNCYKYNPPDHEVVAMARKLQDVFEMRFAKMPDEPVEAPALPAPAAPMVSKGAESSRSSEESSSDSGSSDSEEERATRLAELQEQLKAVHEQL
Method: (§3) TR-FRET In-Vitro Binding Assays for BRD2, BRD3, and BRD4: All assays were performed in 384-well microtiter plates. […] Liquid handling and incubation steps were done on an Innovadyne Nanodrop Express equipped with a robotic arm (Thermo CatX, Perkin Elmer/Caliper Twister II) and an incubator (Liconic STX40, Thermo Cytomat 2C450). The assay plates were prepared by addition of 50 nl per well of compound solution in 90% DMSO HummingBird nanodispenser (Zinsser Analytic). […] Reactions were incubated at 30° C. for 35 minutes. […] After 35 minutes incubation at 30° C., plates were measured in a Perkin Elmer EnVision multilabel reader. […] The stock solutions were stored at […] if not used immediately. For the test procedure the vials were defrosted and identified by a scanner whereby a working sheet was generated that guided the subsequent working steps. Compound dilutions were made in 96 well plates. This format enabled the assay of maximally […] at 8 concentrations (single points) including 4 reference compounds, if desired (known BET inhibitors from the prior art, for this and other assays of the type disclosed herein). The dilution protocol included the production of “pre-dilution plates”, “master plates” and “assay plates”. Polypropylene 96-well plates were used as pre-dilution plates. […] All dilution steps were done on a HamiltonSTAR robot. […] Identical “assay plates” were then prepared by pipetting 50 nL each of compound dilutions of the “master plates” into 384-well “assay plates” by means of a HummingBird 384-channel dispenser. These plates were used directly for the assay which was performed in a total volume of 13.55 μL.

MV-4-11 = assay: Cell growth inhibition assay (CellTiter-Glo), MV-4-11; assay type: cell-based, human; details: MV-4-11 cells, 4 days; for GI50: Homo sapiens, MV4-11, 96 h, half-maximal growth inhibition; for MV-4-11 TGI: total growth inhibition
Method: as §1, §2

BRD4 = BRD4 (Homo sapiens (Human), UniProt O60885); assay: TR-FRET in-vitro binding assay for BRD4; details: 45 nM His-Brd4(44-477), acetyl-histone H4 (AcK 5, 8, 12, 16) peptide
Method: as §3

CREBBP = CREBBP (Homo sapiens (Human), UniProt Q92793); assay: AlphaScreen in-vitro binding assay for CREBBP; details: 324 nM His-CREBBP (1081-1197), acetyl-histone H4 (AcK 5, 8, 12) peptide
CREBBP, sequence (Q92793 1081-1197): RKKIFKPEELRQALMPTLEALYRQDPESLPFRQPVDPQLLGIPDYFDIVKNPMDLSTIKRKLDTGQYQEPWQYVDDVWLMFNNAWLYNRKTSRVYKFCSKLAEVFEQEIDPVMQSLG
Method: AlphaScreen In-Vitro Binding Assay for CREBBP
In order to assess bromodomain selectivity, we set up a binding assay using the bromodomain encoded by the CREBBP gene. […] The assay was started by stepwise addition of 4.5 μL per well of bromo domain protein (50 mM HEPES, pH 7.5, 0.005% Tween20, 0.02% BSA, 150 mM NaCl, 324 nM His-CREBBP (1081-1197) (custom production at Viva Biotech Ltd.)) and 4.5 μL per well of peptide solution (50 mM HEPES, pH 7.5, 0.005% Tween20, 0.02% BSA, 150 mM NaCl, 120 nM acetyl-histone H4 (AcK 5, 8, 12) (Biosyntan GmbH)). Reactions were incubated at 30° C. for 35 minutes. Subsequently 4.5 μL per well detection mix (50 mM HEPES, pH 7.5, 0.005% Tween20, 0.02% BSA, 150 mM NaCl, 45 μg/ml Ni-chelate acceptor beads, 45 μg/mL streptavidin-donor beads) (Perkin Elmer)) were added. After 60 minutes incubation at room temperature, plates were measured in a Perkin Elmer EnVision multilabel reader. IC50 values were determined from percent inhibition values at different compound concentrations by non-linear regression analysis.
Test compounds were dissolved in DMSO (10 mM) and transferred into 1.4 mL flat bottom or V-shaped Matrix tubes carrying a unique 2D matrix. The stock solutions were stored at […] if not used immediately. For the test procedure the vials were defrosted and identified by a scanner whereby a working sheet was generated that guided the subsequent working steps. Compound dilutions were made in 96 well plates. This format enabled the assay of maximally […] at 8 concentrations (single points) including 4 reference compounds, if desired (known BET inhibitors from the prior art, for this and other assays of the type disclosed herein). The dilution protocol included the production of “pre-dilution plates”, “master plates” and “assay plates”.
Polypropylene 96-well plates were used as pre-dilution plates. A total of 4 pre-dilution plates were prepared including 10 test compounds each on the plate positions A1-A10, one standard compound at A11 and one DMSO control at […]. All dilution steps were done on a HamiltonSTAR robot.
30 μL of individual compound dilutions including standard compound and controls of the 4 “pre-dilution plates” were transferred into a 384-well “master plate” including the following concentrations 10000, […], 1000, 300, 100, 30, 10 and 3 μM, respectively in 90% of DMSO.
Identical “assay plates” were then prepared by pipetting 50 nL each of compound dilutions of the “master plates” into 384-well “assay plates” by means of a HummingBird 384-channel dispenser. These plates were used directly for the assay which was performed in a total volume of 13.55 μL.

For `CC(=O)Nc1cn(C)c2c1C(=O)N(c1cc(C)c3nnn(C)c3c1)C2c1ccc(Cl)cc1` (stereo not drawn) [Example 113, N-(6-(4-chlorophenyl)-5-(1,4-dimethyl-1H-benzo[d][1,2,3]triazol-6-yl)-1-methyl-4-oxo-1,4,5,6-tetrahydropyrrolo[3,4-b]pyrrol-3-yl)acetamide], the GI50 (K-562) was 72 nM, the “K-562 TGI” value (K-562) was >10000 nM and the GI50 (THP-1) was 12.9 nM. The “THP-1 TGI” value (THP-1) was 30.35 nM, the IC50 (BRD3) was 15 nM and the GI50 (MV-4-11) was 13.6 nM. The “MV-4-11 TGI” value (MV-4-11) was 27.25 nM, the IC50 (BRD4) was 13 nM and the IC50 (CREBBP) was 1600 nM.

For `CNC(=O)Nc1cn(C)c2c1C(=O)N(c1cc(C)c3nnn(C)c3c1)C2c1ccc(Cl)cc1` (stereo not drawn) [Example 114, 1-(6-(4-chlorophenyl)-5-(1,4-dimethyl-1H-benzo[d][1,2,3]triazol-6-yl)-1-methyl-4-oxo-1,4,5,6-tetrahydropyrrolo[3,4-b]pyrrol-3-yl)-3-methylurea], the GI50 (K-562) was 499 nM, the “K-562 TGI” value (K-562) was >10000 nM and the GI50 (THP-1) was 27.1 nM. For the same compound, the “THP-1 TGI” value (THP-1) was 105.2 nM, the IC50 (BRD3) was 38 nM and the GI50 (MV-4-11) was 26.8 nM. For the same compound, the “MV-4-11 TGI” value (MV-4-11) was 66 nM, the IC50 (BRD4) was 34 nM and the IC50 (CREBBP) was 1300 nM.

For `Cc1cc(N2C(=O)c3c(NC(=O)CCN(C)C)cn(C)c3C2c2ccc(Cl)cc2)cc2c1nnn2C` (stereo not drawn) [Example 115, N-(6-(4-chlorophenyl)-5-(1,4-dimethyl-1H-benzo[d][1,2,3]triazol-6-yl)-1-methyl-4-oxo-1,4,5,6-tetrahydropyrrolo[3,4-b]pyrrol-3-yl)-3-(dimethylamino)propanamide], the GI50 (K-562) was 157 nM, the “K-562 TGI” value (K-562) was >10000 nM and the GI50 (THP-1) was 29.3 nM. The “THP-1 TGI” value (THP-1) was 79 nM, the IC50 (BRD3) was 36 nM and the GI50 (MV-4-11) was 16.1 nM. The “MV-4-11 TGI” value (MV-4-11) was 25.7 nM, the IC50 (BRD4) was 26 nM and the IC50 (CREBBP) was 3900 nM.

With `Cc1cc(N2C(=O)c3c(NC(=O)CN(C)C)cn(C)c3C2c2ccc(Cl)cc2)cn2c(C)nnc12` (stereo not drawn) [Example 116, N-(6-(4-chlorophenyl)-5-(3,8-dimethyl-[1,2,4]triazolo[4,3-a]pyridin-6-yl)-1-methyl-4-oxo-1,4,5,6-tetrahydropyrrolo[3,4-b]pyrrol-3-yl)-2-(dimethylamino)acetamide] the GI50 (K-562) was 288 nM, the “K-562 TGI” value (K-562) was >10000 nM and the GI50 (THP-1) was 59.5 nM. For the same compound, the “THP-1 TGI” value (THP-1) was 123 nM, the IC50 (BRD3) was 34 nM and the GI50 (MV-4-11) was 37.8 nM. The “MV-4-11 TGI” value (MV-4-11) was 87.45 nM, the IC50 (BRD4) was 26 nM and the IC50 (CREBBP) was 4200 nM.

For `CC(=O)N1CC(c2cn(C)c3c2C(=O)N(c2cc(C)c4nnc(C)n4c2)C3c2ccc(Cl)cc2)C1` (stereo not drawn) [Example 117, 3-(1-acetylazetidin-3-yl)-6-(4-chlorophenyl)-5-(3,8-dimethyl-[1,2,4]triazolo[4,3-a]pyridin-6-yl)-1-methyl-5,6-dihydropyrrolo[3,4-b]pyrrol-4(1H)-one], the GI50 (K-562) was 1490 nM, the “K-562 TGI” value (K-562) was >10000 nM and the GI50 (THP-1) was 184 nM. For the same compound, the “THP-1 TGI” value (THP-1) was 354 nM, the IC50 (BRD3) was 17 nM and the GI50 (MV-4-11) was 124 nM. The “MV-4-11 TGI” value (MV-4-11) was 217.5 nM, the IC50 (BRD4) was 14 nM and the IC50 (CREBBP) was 13700 nM.

With `Cc1cc(N2C(=O)c3c(C4CN(C)C4)cn(C)c3C2c2ccc(Cl)cc2)cn2c(C)nnc12` (stereo not drawn) [Example 118, 6-(4-chlorophenyl)-5-(3,8-dimethyl-[1,2,4]triazolo[4,3-a]pyridin-6-yl)-1-methyl-3-(1-methylazetidin-3-yl)-5,6-dihydropyrrolo[3,4-b]pyrrol-4(1H)-one] the GI50 (K-562) was 3830 nM, the “K-562 TGI” value (K-562) was >10000 nM and the GI50 (THP-1) was 956 nM. For the same compound, the “THP-1 TGI” value (THP-1) was 1810 nM, the IC50 (BRD3) was 22 nM and the GI50 (MV-4-11) was 374 nM. The “MV-4-11 TGI” value (MV-4-11) was 591.5 nM, the IC50 (BRD4) was 21 nM and the IC50 (CREBBP) was 32300 nM.

For `Cc1cc(N2C(=O)c3c(C4CC4)c(C4=CCOCC4)n(C)c3C2c2ccc(Cl)cc2)cn2c(C)nnc12` (stereo not drawn) [Example 119, 6-(4-chlorophenyl)-3-cyclopropyl-2-(3,6-dihydro-2H-pyran-4-yl)-5-(3,8-dimethyl-[1,2,4]triazolo[4,3-a]pyridin-6-yl)-1-methyl-5,6-dihydropyrrolo[3,4-b]pyrrol-4(1H)-one], the GI50 (K-562) was 11.7 nM, the “K-562 TGI” value (K-562) was 3740 nM and the GI50 (THP-1) was 1.57 nM. For the same compound, the “THP-1 TGI” value (THP-1) was 3.665 nM, the IC50 (BRD3) was < 11 nM and the GI50 (MV-4-11) was 1.24 nM. The “MV-4-11 TGI” value (MV-4-11) was 3.76 nM, the IC50 (BRD4) was < 11 nM and the IC50 (CREBBP) was 1700 nM.
